In experiment [1] the target is Serine/threonine-protein kinase Nek4 (Homo sapiens) (UniProt P51957). Description: Inhibition of NEK4 Lys2 labeling site in human Huh-7 cell lysate at 1 uM by KiNativ Profiling analysis relative to control. The experiment is classed as subcellular.
Experiment [2] addresses Ribosomal protein S6 kinase delta-1 (Homo sapiens) (UniProt Q96S38). Description: Inhibition of RSKL1 domain1 Protein Kinase Domain labeling site in human Huh-7 cell lysate at 1 uM by KiNativ Profiling analysis relative to control. Format: subcellular.
In experiment [3] the target is T1, Scaffold protein ILK (Homo sapiens) (UniProt Q13418).
T1 sequence (whole entry): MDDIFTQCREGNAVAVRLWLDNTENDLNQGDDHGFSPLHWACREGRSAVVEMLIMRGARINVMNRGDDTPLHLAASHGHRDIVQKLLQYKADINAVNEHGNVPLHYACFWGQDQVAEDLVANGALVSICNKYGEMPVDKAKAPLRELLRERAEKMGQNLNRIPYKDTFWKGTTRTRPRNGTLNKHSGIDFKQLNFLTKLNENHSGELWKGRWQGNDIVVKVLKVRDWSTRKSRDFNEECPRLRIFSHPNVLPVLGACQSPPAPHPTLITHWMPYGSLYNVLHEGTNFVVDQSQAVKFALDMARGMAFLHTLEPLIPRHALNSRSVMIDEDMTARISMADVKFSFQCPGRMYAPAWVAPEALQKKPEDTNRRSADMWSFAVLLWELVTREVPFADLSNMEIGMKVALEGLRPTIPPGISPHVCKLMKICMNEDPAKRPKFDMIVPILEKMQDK
Description: Inhibition of ILK Protein Kinase Domain labeling site in human Huh-7 cells at 1 uM by KiNativ Profiling analysis relative to control. Format: cell-based.

For experiment [4], the target named is Serine/threonine-protein kinase mTOR (Homo sapiens) (UniProt P42345). Description: Inhibition of MTOR (unknown origin) at 1 uM by Ambit Kinomescan binding assay relative to control.
Experiment [5] deals with T2, Serine/threonine-protein kinase TAO2 (Homo sapiens) (UniProt Q9UL54).
T2 sequence (whole entry): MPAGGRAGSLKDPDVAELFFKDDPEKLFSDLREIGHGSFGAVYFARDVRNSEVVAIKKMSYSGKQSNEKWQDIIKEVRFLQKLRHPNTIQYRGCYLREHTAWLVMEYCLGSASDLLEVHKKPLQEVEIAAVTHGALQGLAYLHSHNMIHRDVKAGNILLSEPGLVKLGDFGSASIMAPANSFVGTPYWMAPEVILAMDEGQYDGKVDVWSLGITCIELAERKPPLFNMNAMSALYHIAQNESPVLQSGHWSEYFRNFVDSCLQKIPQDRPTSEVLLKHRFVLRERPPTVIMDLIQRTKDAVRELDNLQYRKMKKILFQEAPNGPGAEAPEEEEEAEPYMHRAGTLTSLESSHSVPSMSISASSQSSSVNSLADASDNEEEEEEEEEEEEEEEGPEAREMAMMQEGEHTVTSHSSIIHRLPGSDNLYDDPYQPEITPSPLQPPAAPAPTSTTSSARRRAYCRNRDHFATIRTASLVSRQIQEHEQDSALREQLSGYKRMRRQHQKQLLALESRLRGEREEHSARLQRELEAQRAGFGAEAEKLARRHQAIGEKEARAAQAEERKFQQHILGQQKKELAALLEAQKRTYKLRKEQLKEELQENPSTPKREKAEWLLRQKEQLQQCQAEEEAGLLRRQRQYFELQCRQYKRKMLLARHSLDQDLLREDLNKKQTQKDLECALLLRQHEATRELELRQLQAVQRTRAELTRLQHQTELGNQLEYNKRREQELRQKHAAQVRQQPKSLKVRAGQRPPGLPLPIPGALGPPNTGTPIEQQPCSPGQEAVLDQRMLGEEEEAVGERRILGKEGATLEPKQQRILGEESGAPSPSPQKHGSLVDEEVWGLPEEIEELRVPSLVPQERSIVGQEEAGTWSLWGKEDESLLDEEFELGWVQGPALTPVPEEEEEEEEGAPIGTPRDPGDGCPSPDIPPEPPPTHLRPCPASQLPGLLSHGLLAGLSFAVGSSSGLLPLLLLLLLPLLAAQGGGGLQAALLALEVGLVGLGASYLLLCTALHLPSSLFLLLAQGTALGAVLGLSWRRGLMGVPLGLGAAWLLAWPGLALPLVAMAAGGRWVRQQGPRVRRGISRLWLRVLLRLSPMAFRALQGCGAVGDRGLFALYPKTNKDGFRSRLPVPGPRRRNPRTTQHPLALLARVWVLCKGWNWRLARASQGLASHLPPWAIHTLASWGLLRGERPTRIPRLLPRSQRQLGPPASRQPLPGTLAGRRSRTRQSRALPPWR
Description: Inhibition of TAOK2 (unknown origin) at 1 uM by Ambit Kinomescan binding assay relative to control.

In experiment [6] the target is Receptor tyrosine-protein kinase erbB-3 (Homo sapiens) (UniProt P21860). Description: Inhibition of HER3/ErbB3 ACT labeling site in human A-375 cells at 5 uM by KiNativ Profiling analysis relative to control. Format: cell-based.
Experiment [7] has as its target Bone morphogenetic protein receptor type-1B (Homo sapiens) (UniProt O00238). Description: Inhibition of BMPR1B (unknown origin) at 10 uM by Ambit Kinomescan binding assay.
Experiment [8] has as its target Serine/threonine-protein kinase BRSK1 (Homo sapiens) (UniProt Q8TDC3). Description: Inhibition of BRSK1 (unknown origin) at 10 uM by Ambit Kinomescan binding assay.
Experiment [9] addresses Ribosomal protein S6 kinase alpha-2 (Homo sapiens) (UniProt Q15349). Description: Inhibition of N-terminal RPS6KA2 kinase domain 1 (unknown origin) at 10 uM by Ambit Kinomescan binding assay.
Experiment [10] has as its target Cyclin-dependent kinase 5 (Homo sapiens) (UniProt Q00535). Description: Inhibition of CDK5 Lys2 labeling site in human A-375 cells at 5 uM by KiNativ Profiling analysis relative to control. The experiment is classed as cell-based.
Experiment [11] addresses Serine/threonine-protein kinase 3/4 (Homo sapiens) (UniProt Q13043+Q13188). Description: Inhibition of MST1/2 K2 labeling site in human Huh-7 cells at 10 uM by KiNativ Profiling analysis relative to control. The experiment is classed as cell-based.
Experiment [12] in a line: Inhibition of Wnk1/2/3 K2 labeling site in human Huh-7 cells at 1 uM by KiNativ Profiling analysis relative to control. To be noted: condition cancer.
Experiment [13] has as its target Tyrosine-protein kinase Srms (Homo sapiens) (UniProt Q9H3Y6). Description: Inhibition of SRMS (unknown origin) at 10 uM by Ambit Kinomescan binding assay relative to control; values are per cent of control.
Experiment [14] deals with Non-receptor tyrosine-protein kinase TYK2 (Homo sapiens) (UniProt P29597). Description: Inhibition of TYK2 JH1 catalytic domain (unknown origin) at 10 uM by Ambit Kinomescan binding assay relative to control; values are per cent of control.

Molecules are shown by their SMILES. The source made the active and inactive calls. The calls are words filed in the database; no cut-off is given here.

Chain of Tyrosine-protein kinase Srms (Homo sapiens) (Q9H3Y6 whole entry, the tested form may be a part): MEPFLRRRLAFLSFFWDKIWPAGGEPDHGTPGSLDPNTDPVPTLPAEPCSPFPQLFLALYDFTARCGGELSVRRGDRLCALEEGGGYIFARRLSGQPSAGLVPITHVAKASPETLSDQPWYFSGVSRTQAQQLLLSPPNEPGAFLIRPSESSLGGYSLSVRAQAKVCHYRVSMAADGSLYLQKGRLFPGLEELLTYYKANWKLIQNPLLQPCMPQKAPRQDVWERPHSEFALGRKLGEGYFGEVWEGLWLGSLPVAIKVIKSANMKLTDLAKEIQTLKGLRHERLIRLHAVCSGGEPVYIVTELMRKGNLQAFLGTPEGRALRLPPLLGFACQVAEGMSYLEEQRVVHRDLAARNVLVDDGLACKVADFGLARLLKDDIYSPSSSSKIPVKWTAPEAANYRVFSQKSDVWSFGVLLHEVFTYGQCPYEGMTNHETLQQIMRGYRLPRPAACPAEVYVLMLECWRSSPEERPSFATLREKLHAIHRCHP
Chain of Non-receptor tyrosine-protein kinase TYK2 (Homo sapiens) (P29597 whole entry, the tested form may be a part): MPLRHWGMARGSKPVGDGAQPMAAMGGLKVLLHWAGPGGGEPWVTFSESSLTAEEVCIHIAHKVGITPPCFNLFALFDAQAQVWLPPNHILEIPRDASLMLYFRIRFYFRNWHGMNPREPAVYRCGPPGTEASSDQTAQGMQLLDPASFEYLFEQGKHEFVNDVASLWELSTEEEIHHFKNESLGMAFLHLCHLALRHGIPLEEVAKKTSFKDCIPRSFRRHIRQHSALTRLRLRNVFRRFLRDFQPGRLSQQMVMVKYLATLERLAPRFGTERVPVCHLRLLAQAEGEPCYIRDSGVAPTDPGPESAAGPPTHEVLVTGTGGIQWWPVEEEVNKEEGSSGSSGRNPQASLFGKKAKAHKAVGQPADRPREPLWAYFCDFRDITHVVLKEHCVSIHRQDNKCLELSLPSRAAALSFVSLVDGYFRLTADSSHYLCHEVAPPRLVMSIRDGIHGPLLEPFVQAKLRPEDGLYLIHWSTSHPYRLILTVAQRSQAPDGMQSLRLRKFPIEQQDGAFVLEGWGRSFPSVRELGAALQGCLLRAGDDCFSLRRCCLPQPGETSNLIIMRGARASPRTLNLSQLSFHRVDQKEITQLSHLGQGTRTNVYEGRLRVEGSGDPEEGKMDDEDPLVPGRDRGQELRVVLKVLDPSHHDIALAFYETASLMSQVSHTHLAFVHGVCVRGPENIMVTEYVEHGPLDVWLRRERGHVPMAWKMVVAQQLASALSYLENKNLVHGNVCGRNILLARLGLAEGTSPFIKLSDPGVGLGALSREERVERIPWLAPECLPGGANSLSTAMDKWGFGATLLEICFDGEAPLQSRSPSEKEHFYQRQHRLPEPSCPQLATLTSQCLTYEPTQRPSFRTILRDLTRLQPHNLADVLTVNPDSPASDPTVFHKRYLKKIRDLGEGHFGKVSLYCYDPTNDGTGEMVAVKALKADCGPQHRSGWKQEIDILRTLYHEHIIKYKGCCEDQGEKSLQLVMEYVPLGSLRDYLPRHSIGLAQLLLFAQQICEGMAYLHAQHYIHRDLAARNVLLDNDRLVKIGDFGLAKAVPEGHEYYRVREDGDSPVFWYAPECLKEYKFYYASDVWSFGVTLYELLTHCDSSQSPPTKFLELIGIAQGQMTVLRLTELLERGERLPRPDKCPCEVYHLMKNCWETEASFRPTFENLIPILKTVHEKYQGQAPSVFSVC
Chain of Serine/threonine-protein kinase Nek4 (Homo sapiens) (P51957 whole entry, looked up, the tested form may be a part): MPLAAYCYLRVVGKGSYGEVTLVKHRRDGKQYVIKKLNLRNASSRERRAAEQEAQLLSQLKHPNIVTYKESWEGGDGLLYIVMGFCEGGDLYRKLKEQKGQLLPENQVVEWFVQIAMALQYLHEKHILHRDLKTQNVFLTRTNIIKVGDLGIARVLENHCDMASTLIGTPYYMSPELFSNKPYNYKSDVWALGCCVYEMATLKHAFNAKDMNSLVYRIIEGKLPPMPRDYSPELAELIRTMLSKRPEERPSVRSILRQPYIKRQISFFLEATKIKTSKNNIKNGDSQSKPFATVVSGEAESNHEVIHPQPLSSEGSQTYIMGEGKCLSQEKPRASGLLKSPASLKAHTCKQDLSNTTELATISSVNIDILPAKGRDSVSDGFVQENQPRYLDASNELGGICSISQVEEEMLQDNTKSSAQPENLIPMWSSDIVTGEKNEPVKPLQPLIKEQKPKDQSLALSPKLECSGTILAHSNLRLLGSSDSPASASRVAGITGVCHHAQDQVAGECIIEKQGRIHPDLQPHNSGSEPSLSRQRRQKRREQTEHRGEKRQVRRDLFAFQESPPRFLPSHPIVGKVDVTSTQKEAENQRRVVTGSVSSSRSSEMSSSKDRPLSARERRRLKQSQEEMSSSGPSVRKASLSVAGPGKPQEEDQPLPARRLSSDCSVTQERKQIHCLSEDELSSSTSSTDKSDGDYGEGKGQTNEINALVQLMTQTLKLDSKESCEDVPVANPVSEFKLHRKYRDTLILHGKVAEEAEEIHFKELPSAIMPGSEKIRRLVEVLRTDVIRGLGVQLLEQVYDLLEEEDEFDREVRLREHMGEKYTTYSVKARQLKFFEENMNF
Chain of Serine/threonine-protein kinase 3/4 (Homo sapiens) (Q13043 whole entry, looked up): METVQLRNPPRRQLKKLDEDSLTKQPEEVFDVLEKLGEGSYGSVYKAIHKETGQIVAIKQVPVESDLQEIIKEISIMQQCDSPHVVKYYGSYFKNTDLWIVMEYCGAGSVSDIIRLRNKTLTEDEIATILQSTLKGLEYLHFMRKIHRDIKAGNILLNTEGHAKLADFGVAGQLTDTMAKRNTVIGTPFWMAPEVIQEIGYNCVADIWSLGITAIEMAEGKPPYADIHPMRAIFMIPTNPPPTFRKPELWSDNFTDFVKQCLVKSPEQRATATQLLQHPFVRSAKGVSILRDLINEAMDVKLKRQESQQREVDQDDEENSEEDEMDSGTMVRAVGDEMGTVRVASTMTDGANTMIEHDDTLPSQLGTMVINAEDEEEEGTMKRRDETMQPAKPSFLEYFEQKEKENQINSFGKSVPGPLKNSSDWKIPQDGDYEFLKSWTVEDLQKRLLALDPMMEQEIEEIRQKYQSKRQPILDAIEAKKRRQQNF
Chain of Serine/threonine-protein kinase 3/4 (Homo sapiens) (Q13188 whole entry, looked up): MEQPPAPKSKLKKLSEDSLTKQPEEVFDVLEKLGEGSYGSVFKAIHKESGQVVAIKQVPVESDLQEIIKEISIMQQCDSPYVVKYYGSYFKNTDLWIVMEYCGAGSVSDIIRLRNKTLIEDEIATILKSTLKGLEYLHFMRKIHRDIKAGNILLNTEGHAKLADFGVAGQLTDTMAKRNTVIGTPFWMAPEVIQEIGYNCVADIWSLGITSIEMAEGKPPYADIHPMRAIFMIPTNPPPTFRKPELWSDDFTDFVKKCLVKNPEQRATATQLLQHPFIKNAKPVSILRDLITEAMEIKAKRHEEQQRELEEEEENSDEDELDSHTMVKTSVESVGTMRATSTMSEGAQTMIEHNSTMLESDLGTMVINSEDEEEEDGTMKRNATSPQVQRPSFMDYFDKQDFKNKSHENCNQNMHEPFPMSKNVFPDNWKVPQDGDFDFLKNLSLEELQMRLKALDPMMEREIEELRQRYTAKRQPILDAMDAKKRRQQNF
Chain of Serine/threonine-protein kinase BRSK1 (Homo sapiens) (Q8TDC3 whole entry, the tested form may be a part): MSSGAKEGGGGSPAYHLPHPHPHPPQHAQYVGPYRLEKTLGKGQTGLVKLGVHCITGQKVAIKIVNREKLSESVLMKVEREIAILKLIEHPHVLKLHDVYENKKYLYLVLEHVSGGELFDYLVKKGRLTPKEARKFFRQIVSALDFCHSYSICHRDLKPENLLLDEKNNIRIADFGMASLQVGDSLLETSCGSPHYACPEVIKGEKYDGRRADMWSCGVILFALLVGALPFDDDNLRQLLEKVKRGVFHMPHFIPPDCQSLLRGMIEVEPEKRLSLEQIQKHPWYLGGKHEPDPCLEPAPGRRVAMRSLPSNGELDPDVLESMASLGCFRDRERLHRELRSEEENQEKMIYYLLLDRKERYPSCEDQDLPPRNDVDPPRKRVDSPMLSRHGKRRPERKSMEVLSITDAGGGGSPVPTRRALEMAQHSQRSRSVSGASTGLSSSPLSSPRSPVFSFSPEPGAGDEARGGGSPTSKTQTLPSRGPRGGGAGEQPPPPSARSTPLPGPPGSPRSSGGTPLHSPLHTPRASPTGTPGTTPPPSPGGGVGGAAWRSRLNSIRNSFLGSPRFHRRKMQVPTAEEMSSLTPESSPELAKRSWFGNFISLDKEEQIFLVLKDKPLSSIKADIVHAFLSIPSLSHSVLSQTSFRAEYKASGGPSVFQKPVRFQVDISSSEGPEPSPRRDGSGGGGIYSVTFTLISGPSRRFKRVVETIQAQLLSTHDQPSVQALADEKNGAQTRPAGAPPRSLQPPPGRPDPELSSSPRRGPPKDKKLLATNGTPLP
Chain of Ribosomal protein S6 kinase alpha-2 (Homo sapiens) (Q15349 whole entry, the tested form may be a part): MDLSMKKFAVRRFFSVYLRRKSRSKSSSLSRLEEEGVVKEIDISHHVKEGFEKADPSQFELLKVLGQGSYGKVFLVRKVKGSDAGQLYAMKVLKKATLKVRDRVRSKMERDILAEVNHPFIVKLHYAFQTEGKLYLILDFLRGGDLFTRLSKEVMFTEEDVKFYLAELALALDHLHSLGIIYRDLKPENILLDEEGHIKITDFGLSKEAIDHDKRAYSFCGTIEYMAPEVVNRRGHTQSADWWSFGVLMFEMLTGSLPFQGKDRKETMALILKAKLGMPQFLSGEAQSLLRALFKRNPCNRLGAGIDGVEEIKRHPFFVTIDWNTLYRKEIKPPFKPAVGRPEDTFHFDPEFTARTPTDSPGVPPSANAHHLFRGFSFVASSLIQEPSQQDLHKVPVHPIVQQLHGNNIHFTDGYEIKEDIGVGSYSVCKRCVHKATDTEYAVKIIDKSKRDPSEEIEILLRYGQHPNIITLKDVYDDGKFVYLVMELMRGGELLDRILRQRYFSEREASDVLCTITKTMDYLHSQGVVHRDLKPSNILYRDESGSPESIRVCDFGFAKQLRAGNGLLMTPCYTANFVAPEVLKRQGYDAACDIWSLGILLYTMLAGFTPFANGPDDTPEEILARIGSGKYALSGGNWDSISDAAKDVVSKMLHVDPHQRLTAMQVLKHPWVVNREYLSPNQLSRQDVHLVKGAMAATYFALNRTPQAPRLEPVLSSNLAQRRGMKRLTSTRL

In the case of `CNc1cc(Oc2cc(C(=O)Nc3cc(N4CCN(C)CC4)cc(C(F)(F)F)c3)ccc2C)ncn1`, the inhibition (as a rule, the drop in the measured response relative to a control, in per cent) is -2.2% in experiment [1], 15.7% in experiment [2] and -0.1% in experiment [3].
For `CCN1CCN(Cc2ccc(NC(=O)c3ccc(C)c(/C=C/c4cnc5[nH]ccc5c4OC)c3)cc2C(F)(F)F)CC1`, the inhibition in experiment [4] is 100%; in [5], 16%; in experiment [6], -3.7%.
Turning to `CCN1CCN(Cc2ccc(NC(=O)c3ccc(C)c(Oc4ccnc5[nH]ccc45)c3)cc2C(F)(F)F)CC1`, the inhibition result in experiment [7], in experiment [8] and in experiment [9] was “inactive” each time. Also, the inhibition was -6.8% in experiment [10] and -9.8% in [11]. Besides, the inhibition at 1 µM in experiment [12] was -17.1%. In addition, the residual activity (commonly the activity still measured, relative to the control) in [13] was determined as 4.6%; in [14], 0%.

For the origin of these results see ChEMBL document CHEMBL5696442, “Discovery of type II inhibitors of TGFβ-activated kinase 1 (TAK1) and mitogen-activated protein kinase kinase kinase kinase 2 (MAP4K2)” (J Med Chem, 2015).
